IC50 data for one molecule are collected here from patent US12503439B2, “Heteroaryl compounds for the treatment of pain” (VERTEX PHARMACEUTICALS INCORPORATED, priority 2022, dated 2025).

The target in this experiment is truncated form of human NaV 1.8 with full channel activity (expressed in HEK cells) (Homo sapiens, UniProt Q9Y5Y9). Nature of the experiment: E-VIPR assay detecting and measuring NaV inhibition properties (electrical stimulation, membrane potential FRET dyes). To be noted: HEK cells expressing truncated human NaV 1.8, KIR2.1 BacMam; 11-point dose response; 30 min compound incubation; stimulation 10 Hz for 10 s; read-out: measured IC50 value in the E-VIPR Assay. The experiment is classed as cell-based. From the text:
E-VIPR Assay Detecting and Measuring NaV Inhibition Properties
Sodium ion channels are voltage-dependent proteins that can be activated by inducing membrane voltage changes by applying electric fields. […] The instrument comprises a microtiter plate handler, an optical system for exciting the coumarin dye while simultaneously recording the coumarin and oxonol emissions, a waveform generator, a current- or voltage-controlled amplifier, and parallel electrode pairs that are inserted into assay plate wells. Under integrated computer control, this instrument passes user-programmed electrical stimulus protocols to cells within the wells of the microtiter plate.
16-20 hours prior to running the assay on E-VIPR, HEK cells expressing a truncated form of human NaV 1.8 with full channel activity were seeded into microtiter 384-well plates, pre-coated with matrigel, at a density of 25,000 cells per well. 2.5-5% KIR2.1 BacMam virus was added to the final cell suspension before seeding into cell plates. […] Cells were expanded in 5-layer CellSTACK culture chambers or cell culture flasks with vented caps, with 90-95% humidity and 5% CO2.
Reagents and Stock Solutions:
The concentration used can be dependent on viral titer of each batch.
Human Serum (HS, Millipore #S1P1-01KL, or Sigma SLBR5469V and SLBR5470V as a 50%/50% mixture, for 25% assay final concentration)
Hexyl Dye Solution (2× Concentration):
Bath 1 Buffer containing 0.5% β-cyclodextrin (made fresh prior to each use, Sigma #C4767), 8 μM CC2-DMPE and 2 μM DiSBAC6(3). The solution was made by adding 10% Pluronic F127 stock equal to combined volumes of CC2-DMPE and DiSBAC6(3). The order of preparation was first mix Pluronic and CC2-DMPE, then add DiSBAC6(3), then while vortexing add Bath 1/β-Cyclodextrin.
Assay Protocol (7 Key Steps):
The compound plate was backfilled with 45 μL per well of Compound Loading Buffer resulting in a 240-fold dilution of compound following a 1:1 transfer of compound into the cell plate (see Step 6). […] This assay dilution protocol was adjusted to enable a higher dose range to be tested in the presence of HS or if the final assay volume was altered. • 2) Hexyl Dye Solution was prepared. • 3) Cell plates were prepared. On the day of the assay, the media was aspirated, and the cells were washed three times with 80 μL of Bath-1 buffer, maintaining 25 μL residual volume in each well. • 4) 25 μL per well of Hexyl Dye Solution was dispensed into the cell plates. The cells were incubated for 20 minutes at room temperature or ambient conditions in darkness. • 5) 45 μL per well of Compound Loading Buffer was dispensed into compound plates. • 6) The cell plates were washed three times with 80 μL per well of Bath-1 Buffer, leaving […] of residual volume. Then 25 μL per well from compound plate was transferred to each cell plate. The mixture was incubated for 30 minutes at room temperature/ambient conditions. • 7) The cell plate containing compound was read on E-VIPR using the current-controlled amplifier to deliver stimulation wave pulses using a symmetrical biphasic waveform. […] A pre-stimulus recording was performed for each well for 0.5 seconds to obtain the un-stimulated intensities baseline. The stimulatory waveform was followed by 0.5 seconds of post-stimulation recording to examine the relaxation to the resting state. All E-VIPR responses were measured at 200 Hz acquisition rate. Data Analysis:
The response as a function of time was reported as the ratios obtained using the following formula: […]
The data were normalized by calculating the initial (Ri) and final (Rf) ratios. These were the average ratio values during part or all of the pre-stimulation period and during sample points during the stimulation period. The fluorescence ratio (Rf/Ri) was then calculated and reported as a function of time.
Control responses were obtained by performing assays in the presence of the positive control, and in the absence of pharmacological agents (DMSO vehicle negative control).

Chain of truncated form of human NaV 1.8 with full channel activity (expressed in HEK cells) (Q9Y5Y9 126-1722 limits assumed): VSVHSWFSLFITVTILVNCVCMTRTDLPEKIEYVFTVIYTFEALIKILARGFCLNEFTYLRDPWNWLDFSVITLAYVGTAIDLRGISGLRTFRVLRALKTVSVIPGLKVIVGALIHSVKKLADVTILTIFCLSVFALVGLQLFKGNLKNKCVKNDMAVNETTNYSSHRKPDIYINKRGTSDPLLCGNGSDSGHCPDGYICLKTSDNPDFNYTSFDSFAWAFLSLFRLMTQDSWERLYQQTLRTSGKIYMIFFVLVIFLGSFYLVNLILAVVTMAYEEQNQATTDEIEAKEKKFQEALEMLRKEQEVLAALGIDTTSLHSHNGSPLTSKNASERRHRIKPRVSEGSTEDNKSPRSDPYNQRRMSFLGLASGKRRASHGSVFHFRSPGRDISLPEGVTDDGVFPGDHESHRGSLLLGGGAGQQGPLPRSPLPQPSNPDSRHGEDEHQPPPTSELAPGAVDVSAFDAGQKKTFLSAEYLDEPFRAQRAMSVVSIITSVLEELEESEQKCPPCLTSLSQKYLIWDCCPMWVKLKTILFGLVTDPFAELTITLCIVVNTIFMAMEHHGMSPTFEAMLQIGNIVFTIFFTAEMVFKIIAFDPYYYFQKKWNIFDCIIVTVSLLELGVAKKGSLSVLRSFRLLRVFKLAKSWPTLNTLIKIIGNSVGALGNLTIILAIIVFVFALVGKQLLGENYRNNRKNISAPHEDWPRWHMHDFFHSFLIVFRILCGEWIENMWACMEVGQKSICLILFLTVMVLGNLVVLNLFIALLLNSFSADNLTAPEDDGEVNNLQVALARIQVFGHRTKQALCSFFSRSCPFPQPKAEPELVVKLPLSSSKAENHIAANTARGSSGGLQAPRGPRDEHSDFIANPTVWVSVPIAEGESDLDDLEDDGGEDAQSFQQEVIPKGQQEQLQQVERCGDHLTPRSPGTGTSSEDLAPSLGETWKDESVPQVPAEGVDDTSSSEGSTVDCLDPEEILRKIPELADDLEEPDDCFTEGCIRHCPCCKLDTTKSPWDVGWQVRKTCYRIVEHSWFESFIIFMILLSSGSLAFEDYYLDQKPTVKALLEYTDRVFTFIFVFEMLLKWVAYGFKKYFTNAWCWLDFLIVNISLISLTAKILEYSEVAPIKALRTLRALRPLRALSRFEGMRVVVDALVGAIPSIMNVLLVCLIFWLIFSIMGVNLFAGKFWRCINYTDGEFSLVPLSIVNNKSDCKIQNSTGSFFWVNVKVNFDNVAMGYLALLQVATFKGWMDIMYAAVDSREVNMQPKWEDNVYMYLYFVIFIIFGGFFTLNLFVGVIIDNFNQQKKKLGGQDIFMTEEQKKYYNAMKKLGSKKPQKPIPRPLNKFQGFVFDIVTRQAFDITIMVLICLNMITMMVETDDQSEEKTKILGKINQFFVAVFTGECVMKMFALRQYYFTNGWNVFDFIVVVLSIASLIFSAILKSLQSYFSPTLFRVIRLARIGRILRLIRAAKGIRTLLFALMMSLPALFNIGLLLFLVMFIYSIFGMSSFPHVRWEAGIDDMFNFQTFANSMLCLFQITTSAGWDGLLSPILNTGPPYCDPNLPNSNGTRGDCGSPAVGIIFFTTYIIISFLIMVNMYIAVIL

In the case of `NC(=O)c1nccc2[nH]c(-c3cc(F)c(C(F)(F)F)cc3Oc3ccc(F)c(F)c3O)cc(=O)c12` [Compound 347, 2-[2-(3,4-difluoro-2-hydroxy-phenoxy)-5-fluoro-4-(trifluoromethyl)phenyl]-4-oxo-1H-1,6-naphthyridine-5-carboxamide], the IC50 lay within 500 to 2000 nM.

The IC50 is the concentration needed to halve the response being measured.
